Experiment [1] is described as follows: DPPH radical scavenging test (colorimetric). The settings on record: concentration scavenging 50% of DPPH radicals; 10 min, room temperature, 517 nm; mean ± SD. How it is done:
Antioxidative properties of the obtained MPA derivatives were assessed chemically using a colorimetric DPPH test. The IC50 value represents the scavenging activity, defined as the concentration of a compound required to scavenge 50% of DPPH radicals.
Briefly, 400 µL solution of each synthesized compound with different concentrations (20–1000 µg/mL) was added to 1.6 mL DPPH solution (100 µmol/L). After shaking, the mixture was incubated at room temperature in the dark for 10 min, and then the absorbance was measured at 517 nm. The %Scavenging activity was calculated by using the formula: […]
The scavenging activity was expressed as IC50 value, defined as the concentration (mM) of compound required for scavenging DPPH radicals by 50%. IC50 values were determined by linear regression analysis using at least three different concentrations in duplicate.
Three different concentrations were prepared for each sample, while each one was analyzed in duplicate. […] The statistical analysis was performed using Tukey’s HSD test (p < 0.05). The statistical software Statistica 10 software (StatSoft Inc., Tulsa, OK, USA) was implemented for this analysis.

Experiment [2] relates to IMPDH (PBMC proliferation). Nature of the experiment: GMP test: PBMC proliferation with or without guanosine source (IMPDH inhibition). The settings on record: for PBMC proliferation upon GMP addition (reversal of inhibition): with 50 µM GMP. It counts as cell-based, human. The procedure:
ESI Figure 4. Antiproliferative activity of MPA, MMF, and various esters of MPA in the presence of guanosine source — role of IMPDH inhibiton. VPD450-labeled human PBMCs, in the presence of different concentrations (50; 25; 10; 1, and 0.1 μM) of MPA, MMF, and esters, and stimulated (magnetic beads coated with anti-CD3 and anti-CD28 antibodies) were cultured with or without the addition of 50 μM GMP for 72 h. Cell proliferation was analyzed […]
(1 picture or pasted object on this page, not shown here) […]
inhibited cell viability by more than 50%. Each experiment was conducted in triplicate, and the final […]
VPD450 dye-based in vitro cell proliferation test
PBMCs and T-Jurkat cells were washed twice with warm PBS (37°C), re-suspended in fresh PBS at a final concentration of 10-30∙10^6 cells/ml, and labelled with 1 µl of VPD450 (BD Biosciences) at 37°C for 15 minutes, with vortexing every 5 minutes to ensure uniform staining. Subsequently, cells were washed with PBS, then with the complete medium (X-VIVO20 for PBMCs and RPMI-1640 for T-Jurkat cells), next re-suspended in fresh complete medium and seeded into 96-well plates at a concentration of 1∙10^6 cells per well. PBMCs were additionally stimulated with magnetic beads coated with anti-CD3 and anti-CD28 antibodies (Invitrogen) at a 2:1 cell-to-bead ratio. To the experimental wells, 100 µl of the MPA derivatives were added to achieve final concentrations of 50, 25, 10, 5, 1, 0.1, and 0.01 µM. In parallel, control wells containing stained but unstimulated cells and stained, stimulated cells were prepared at the same concentration. Cell proliferation was analyzed using an LSRFortessa flow cytometer (BD Biosciences) and Kaluza C Flow Cytometry Analysis Software (Beckman Coulter).
The data were expressed as EC50 values for compounds that inhibited more than 50% of cell […]
Enzyme inhibition in the presence of guanosine source (GMP test)
PBMCs were suspended in a 15 mL centrifuge tube at a concentration of 10-30 × 10⁶ cells in 1 mL of PBS, then, 2 μL of 1 mM VPD 450 dye solution was added, incubated for 15 min at 37°C, washed with a 9-fold volume of warm PBS and centrifuged at 400 x g for 5 min. Then, the cells were suspended in 10 mL of X-VIVO medium with 10% FBS and centrifuged again at 400 x g for 5 min. After suspending the cells in the complete medium, the staining level was checked using flow cytometry. The cells thus obtained were stimulated with anti-CD3/anti-CD28 antibodies as described previously (see VPD450 dye-based in vitro cell proliferation test). To perform the GMP test, a proper amount of GMP was added to each well to reach its final concentration of 50 μM, and then incubated for 72 hours. Proliferative activity was tested in the presence of various concentrations of compounds (50; 25; 10; 1 and 0.1 μM; MPA and selected amide derivatives) or without their addition. Cell proliferation was assessed using […]
Statistical analysis was conducted using GraphPad Prism 9 (GraphPad Software Inc).
Differences between MMF, MPA and its new derivatives were assessed using a two-tailed unpaired Student’s t-test, with statistical significance defined as p < 0.05. EC50 and IC50 values were determined by fitting data to a four-parameter non-linear regression model in GraphPad Prism 9. Statistical significance was evaluated using the t-test.

In experiment [3] the test system is AsPC-1 cells (human pancreatic cancer cells). Nature of the experiment: MTT cytotoxicity assay on AsPC-1 cell line. It counts as cell-based. The following applies: ASPC1, 72 h treatment, n = 3, mean ± SD. How it is done:
Table 2 presents the concentration of the tested compounds, namely: P4, P7, MP9, MPA, MMF, and gemcitabine (GEM; a standard), which inhibited the proliferation of AsPC-1 cells (human pancreatic cancer cells) by 50% (expressed as IC50 values) compared to the control. Cells were treated with compounds for 72 h and then a colorimetric MTT assay was performed. A graphical representation of these values can be seen in ESI Fig. S1.
Biological evaluation — AsPC-1 cell line
AsPC-1 pancreatic cancer cells (purchased from the American Type Culture Collection, ATCC, Manassas, VA, USA) were maintained in RPMI 1640 medium (Sigma-Aldrich, St Louis, MO, USA), supplemented with heat-inactivated 10% fetal bovine serum (FBS; Biowest, Riverside, MO, USA), 100 µg/mL streptomycin, and 100 units/mL penicillin. Cells were incubated in a humidified atmosphere of 5% CO2 at 37°C. All experiments were performed on cells in a logarithmic growth phase.
To investigate the effect of the tested compounds on cell viability, a colorimetric analysis was performed using MTT (3-(4,5-Dimethyl-2-thiazolyl)-2,5-diphenyl-2H-tetrazolium bromide, Sigma-Aldrich, St Louis, MO, USA) based on the reduction of this yellow salt in metabolically active cells to purple formazan crystals. Cells were seeded onto 96-well plates at 2∙10^3 cells/well and after 24 h incubation for cell attachment, cells were treated with various concentrations of tested compounds and gemcitabine (positive control) up to 50 µM. After 72 hours of incubation, 20 µL MTT at a concentration of 4 mg/mL was added to each well for 3-4 hours. The culture medium was then aspirated and formazan crystals were dissolved in DMSO. The absorbance of the solutions was measured at 540 nm using an iMark Microplate Absorbance Reader (Bio-Rad, Hercules, CA, USA). The drug concentrations required to inhibit cell growth by 50% (IC50) compared to untreated control cells were determined from curves plotting survival as a function of dose. Results were obtained from at least three independent […]
Statistical analysis of MTT cytotoxicity assay results was performed using GraphPad Prism 5.0 by two-tailed unpaired Student’s t-test. Differences p < 0.05 between MPA and its derivatives and gemcitabine were considered statistically significant according to the following criteria: * p < 0.05, ** p <

Each structure is given as a SMILES string.

For `COc1cc(C=O)ccc1OC(=O)CC/C(C)=C/Cc1c(O)c2c(c(C)c1OC)COC2=O` [MP4], inhibition in experiment [1] was half-maximal at 6.4 ± 0.311 mM (IC50).
`COc1c(C)c2c(c(O)c1C/C=C(\C)CCC(=O)Oc1ccc3c(c1)OCO3)C(=O)OC2` [P1] showed an IC50 in experiment [1] of 43.57 ± 0.38 mM. In addition, the “PBMC proliferation upon GMP addition (reversal of inhibition)” value in experiment [2] (50 µM compound, 72 h) was “reversed”. Also, the inhibition at 50 µM in experiment [2] (Homo sapiens, PBMC, 50 µM compound, without GMP, 72 h) was approximately 80%.
Compound `COc1cc(C=O)cc(OC)c1OC(=O)CC/C(C)=C/Cc1c(O)c2c(c(C)c1OC)COC2=O` [MP3] displayed an IC50 in experiment [1] of 12.2 ± 0.252 mM.
On to `COc1c(C)c2c(c(O)c1C/C=C(\C)CCC(=O)OCCN1CCOCC1)C(=O)OC2` [MMF, mycophenolate mofetil, reference compound], for which the results for the IC50 in experiment [1] and in experiment [3] were 19 ± 0.279 mM and 0.00203 ± 4.2e-05 mM, respectively. Besides, the “Inhibition of PBMC proliferation” value in experiment [2] (50 µM compound, without GMP, 72 h) is “near-complete inhibition”.
As to `COc1cccc(OC)c1OC(=O)CC/C(C)=C/Cc1c(O)c2c(c(C)c1OC)COC2=O` [MP2], in experiment [1], the IC50 turned out to be 3.72 ± 0.23 mM.
The same measure, in the same setting: the figure for `COC(=O)/C=C/c1ccc(OC(=O)CC/C(C)=C/Cc2c(O)c3c(c(C)c2OC)COC3=O)c(OC)c1` [MP7] is 3.64 ± 0.113 mM.
For the compound `C/C=C/c1ccc(OC(=O)CC/C(C)=C/Cc2c(O)c3c(c(C)c2OC)COC3=O)c(OC)c1` [MP9], the IC50 in experiment [1] came out at 0.373 ± 0.041 mM; in experiment [3] it was 0.00381 mM. Moreover, in experiment [2] (50 µM compound, 72 h), the “PBMC proliferation upon GMP addition (reversal of inhibition)” value is “comparable pattern”.
On the same counts, the results for `COC(=O)/C=C/c1ccccc1OC(=O)CC/C(C)=C/Cc1c(O)c2c(c(C)c1OC)COC2=O` [P4] are 0.308 ± 0.031 mM, 0.00287 mM and “comparable pattern”.
In turn, `COc1ccccc1OC(=O)CC/C(C)=C/Cc1c(O)c2c(c(C)c1OC)COC2=O` [MP1] yielded an IC50 in experiment [1] of 23.8 ± 0.411 mM.
Still for that read-out and setting: the figure for `COc1c(C)c2c(c(O)c1C/C=C(\C)CCC(=O)Oc1ccc(C=O)cc1)C(=O)OC2` [P5] is 28.2 ± 0.357 mM.
`COc1c(C)c2c(c(O)c1C/C=C(\C)CCC(=O)Oc1ccc(CCC(C)=O)cc1)C(=O)OC2` [P7]: the results for the IC50 in experiment [1] and in experiment [3] were 0.124 mM and 0.00245 mM, respectively. In experiment [2] (50 µM compound, 72 h), the “PBMC proliferation upon GMP addition (reversal of inhibition)” value is listed as “comparable pattern”.
In the case of `COc1c(C)c2c(c(O)c1C/C=C(\C)CCC(=O)Oc1cc(C)ccc1C(C)C)C(=O)OC2` [P2], in experiment [1], the IC50 stood at 11.67 ± 0.113 mM.
On to `COc1c(C)c2c(c(O)c1C/C=C(\C)CCC(=O)O)C(=O)OC2` [MPA, Mycophenolic acid], for which the values for the IC50 in experiment [1] and in experiment [3] were 15.73 ± 0.144 mM and 0.00174 ± 0.000259 mM, respectively. Further, the “Inhibition of PBMC proliferation” value in experiment [2] (50 µM) is on record as “near-complete inhibition”.
The compound `C=CCc1ccc(OC(=O)CC/C(C)=C/Cc2c(O)c3c(c(C)c2OC)COC3=O)c(OC)c1` [MP8] yielded an IC50 in experiment [1] of 6.9 ± 0.225 mM.
